GGTase inhibitory activity data for one compound are collected here from patent US20100331363A1, “TREATMENT OF MITOCHONDRIAL DISORDERS USING A FARNESYL TRANSFERASE INHIBITOR” (Link Medicine Corporation, priority 2008, published 2010).

In the assay the target is GGTase (Homo sapiens, UniProt P49354+P53609). The experiment in a line: GGTase inhibitory activity, general statement. Conditions: selective FTase inhibitors. In kind it is biochemical.

Turning to `C#Cc1cccc(-c2cc(=O)n(C)c3ccc([C@](O)(c4ccc(Cl)cc4)c4cncn4C)cc23)c1` [LNK-754, (R)-6-[(4-chlorophenyl)-hydroxyl-(1-methyl-1-H-imidazol-5-yl)-methyl]-4-(3-ethynylphenyl)-1-methyl-2-(1H)-quinonlinone], the GGTase inhibitory activity result is “little to no GGTase inhibitory activity”.
